Experiments:
[1] = tested on: thymocytes in Shh−/− FTOC; assay: FTOC of E14.5 Shh−/− thymus explants treated with recombinant Shh; assay type: cell-based, mouse
Protocol: As thymocyte cellularity and differentiation were reduced in Shh−/− thymi, we examined if we could promote thymocyte development in Shh−/− thymus explants by treatment with recombinant Shh. We have previously shown that treatment of wildtype FTOC with between 0.3 to 1 μg/ml recombinant Shh arrested thymocyte development at the DN stage (Outram et al., 2000). […] We treated Shh−/− thymus explants for 7 days with 0.5 or 0.0005 μg/ml recombinant Shh. Treatment with 0.5 μg/ml Shh inhibited differentiation from DN to DP cells. In a typical experiment, 5.2% of thymocytes were DP in the treated cultures compared with 36.6% in control cultures (FIG. 12, D and E). Thus, Shh−/− thymocytes were able to respond to a Shh signal in the same way as wildtype thymocytes, despite the fact that they had not been exposed to Shh in vivo. Although this high dose of Shh arrested thymocyte differentiation, some activation of the Hh signalling pathway is clearly necessary for normal thymocyte differentiation. We therefore treated Shh−/− explants with a 1000-fold lower dose of recombinant Shh (0.0005 μg/ml). Treatment of Shh−/− thymus explants with low-dose Shh promoted differentiation to DP cell: After 7 days in culture Shh−/− thymus explants treated with 0.0005 μg/ml Shh contained more DP thymocytes than untreated Shh−/− thymus explants −41.6% DP thymocytes and 32.7% DN thymocytes in treated Shh−/− thymus explants, compared with 36.6% DP cells and 43.1% DN cells in untreated control Shh−/− thymus cultures (FIG. 9b).
We repeated these experiments by treating individual Shh−/− thymus lobes with recombinant Shh and comparing them to untreated cultures of the other lobe from the same embryo (summarized in FIG. 12F, cell production in each culture condition compared with that in the control lobe are shown on a log scale).
(§1) Thymocyte suspensions were prepared by crushing thymi between two pieces of ground glass. Cells were stained using combinations of the following directly conjugated antibodies obtained from BD Pharmingen: anti-CD44FITC, anti-CD44Cychrome, anti-CD25 PE, anti-CD25 FITC, anti-CD4FITC, anti-CD8 Cychrome, anti-CD4PE, anti-CD4Cychrome, anti-CD8FITC, anti-CD45.1PE, anti-CD45.2FITC, anti-CD3PE and anti-TCR-βPE. Cell suspensions were stained with the antibodies for 30 minutes on ice in 50 μl of Dulbeccos modified medium (Life Technologies), supplemented with 5% FCS and 0.1% sodium azide. Cells were washed in this medium between incubations and prior to analysis on the FACScan (Becton Dickinson). Events were collected in list mode using CellQuest software and data analysed using CellQuest Pro software. Live cells were gated according to their FSC and SSC profiles. Data are representative of at least three experiments.
(§2) Fetal thymi were dissected from E14.5 Shh +/+, +/− and −/− mice and cultured on 8 μm pore size Millipore filters (Millipore) in AIM-V serum free medium (Life Technologies). Thymi were cultured at 37° C. and 5% CO2 for 3 or 6 days or cultured in the presence of 0.5 μg/ml or 0.0005 μg/ml modified human Shh (Curis) for 7 days.

[2] = tested on: thymocytes in wild-type FTOC; assay: Fetal thymic organ culture (FTOC) of wild-type thymus, flow cytometry of thymocyte subsets; assay type: cell-based, mouse
Protocol: Utilizing a fetal thymic organ culture (FTOC), the effects of Shh on T-cell maturation was determined. Briefly, immature thymocytes (CD4^−/CD8^− [DN]) were isolated from E14 thymus. The cells were culture for about 7 days, and the level of mature thymocytes, e.g., CD4^+/CD8^+ [DP], was assessed. In certain cultures, octyl-modified Shh was added to the culture; in other cultures, the anti-hedgehog 5E1 antibody was added.
We have previously shown that treatment of wild-type FTOC with between 0.3 and 1 μg/ml recombinant Shh arrested thymocyte development at the DN stage (Outram et al., Immunity 13: 187, 2000). This arrest was not due to nonspecific toxicity of the recombinant Shh, but was a genuine biological effect, as it could be neutralized by addition of anti-Hh mAb. […] Therefore, we decided to determine whether treatment of FTOC with lower concentrations of Shh could promote thymocyte development. We treated wild-type FTOC for 5 days with 0.0005 μg/ml Shh or 0.5 μg/ml Shh. In a typical experiment, treatment with 0.5 μg/ml Shh arrested thymocyte development at the DN stage, and <1% of thymocytes were DP compared with 7.6% in the control cultures, whereas treatment with 0.0005 μg/ml Shh promoted thymocyte development, and 15.2% of cells were DP (FIG. 12A). […] Treatment with 0.5 μg/ml inhibited both the production of DP cells and the overall cell recovery, and this inhibition was neutralized by addition of anti-Hh mAb, confirming that the arrest in thymocyte development was not the result of non-specific toxicity of the reagent (FIG. 12B). Thus, in wild-type FTOC, treatment with different concentrations of recombinant Shh can produce distinct outcomes at the transition from DN to DP cells; high-dose Shh treatment arrests thymocyte development, but treatment with a 1000-fold lower dose promotes the production of DP cells (FIG. 12, A-C).
as §1, §2

[3] = tested on: thymocytes in wild-type FTOC; settings: cited from earlier work

Question: Which results are given for “Shh: hydrophobically modified human Shh signalling protein, N-octyl-malemide coupled to amino-terminal cysteine of bacterially derived N-shh (Curis)”?
Answer: DN thymocytes ([1]; Shh−/− explants, 7 days, 0.0005 μg/ml Shh, untreated 43.1%): 32.7%; thymocytes that were DP ([1]; Shh−/− explants, 7 days, 0.5 μg/ml Shh, control cultures 36.6%): 5.2%; production of DP cells ([1]; Shh−/− explants, low dose treatment (0.0005 μg/ml), overall): more than doubled; cell number compared to control ([1]; Shh−/− explants, low-dose Shh (0.0005 μg/ml)): increased; differentiation from DN to DP cells ([1]; Shh−/− thymus explants, 0.5 μg/ml Shh): inhibited; overall cell production and differentiation to DP cell ([1]; individual Shh−/− thymus lobes, high dose Shh): inhibited; percentage of cells with markers indicative of immature thymocytes ([2]; E14 thymus, about 7 days culture, high dose of Shh 0.5 μg/ml): increase; Shh concentration at which Hedgehog functions as an immunosuppressant ([2]; FTOC, FIG. 12B): more than 0.1 μg/ml; promotion of thymocyte development ([2]; wild-type FTOC, 0.00005 μg/ml): lost; cells that were DP ([2]; wild-type FTOC, 5 days, 0.0005 μg/ml Shh, control cultures 7.6%): 15.2%; thymocytes that were DP ([2]; wild-type FTOC, 5 days, 0.5 μg/ml Shh, control cultures 7.6%): < 1%; thymocyte development at the DN3 stage, after TCRβ chain gene rearrangement ([3]; in vitro treatment of FTOC (Outram et al. 2000)): arrested; thymocyte development at the DN stage ([3]; wild-type FTOC, between 0.3 and 1 μg/ml recombinant Shh (Outram et al. 2000)): arrested
